What was measured:
Type in all cases: functional
[1] = tested on: HeLa; assay: Induction of cell cycle arrest in human HeLa cells assessed as >4N cells at 12.3 uM incubated for 12 hrs by RNAse A/PI staining based flow cytometric analysis (reference value: 2.61%)
[2] = tested on: HeLa; assay: Induction of cell cycle arrest in human HeLa cells assessed as 4N cells at 12.3 uM incubated for 48 hrs by RNAse A/PI staining based flow cytometric analysis (reference value: 5.37%)
[3] = tested on: HeLa; assay: Induction of apoptosis in human HeLa cells assessed as late apoptotic cells at 13.2 uM incubated for 48 hrs by annexinV-FITC/propidium iodide staining based flow cytometry analysis (reference value: 0.1%)
[4] = tested on: HeLa; assay: Induction of cell cycle arrest in human HeLa cells assessed as >4N cells at 12.3 uM incubated for 48 hrs by RNAse A/PI staining based flow cytometric analysis (reference value: 2.61%)
[5] = tested on: HeLa; assay: Induction of cell cycle arrest in human HeLa cells assessed as >4N cells at 24.6 uM incubated for 48 hrs by RNAse A/PI staining based flow cytometric analysis (reference value: 2.61%)
[6] = tested on: HeLa; assay: Induction of cell cycle arrest in human HeLa cells assessed as <2N cells at 12.3 uM incubated for 24 hrs by RNAse A/PI staining based flow cytometric analysis (reference value: 41.6%)
[7] = tested on: HeLa; assay: Induction of cell cycle arrest in human HeLa cells assessed as <2N cells at 6.2 uM incubated for 48 hrs by RNAse A/PI staining based flow cytometric analysis (reference value: 41.6%)
[8] = tested on: HeLa; assay: Induction of apoptosis in human HeLa cells assessed as viable cells at 13.2 uM incubated for 48 hrs by annexinV-FITC/propidium iodide staining based flow cytometry analysis (reference value: 99.8%); conditions: read-out: Activity
[9] = tested on: HeLa; assay: Induction of mitochondrial membrane potential loss in human HeLa cells assessed as decrease in fluorescence intensity […] at 12.3 uM by Rhodamine 123 staining based flow cytometric analysis (reference value: 58.0%); design: scale not given: the % may be the effect or the level left
[10] = tested on: HeLa; assay: Induction of apoptosis in human HeLa cells assessed as necrotic cells at 19.6 uM incubated for 48 hrs by annexinV-FITC/propidium iodide staining based flow cytometry analysis (reference value: 0.0%)
[11] = tested on: HeLa; assay: Induction of cell cycle arrest in human HeLa cells assessed as 4N cells at 12.3 uM incubated for 24 hrs by RNAse A/PI staining based flow cytometric analysis (reference value: 5.37%)

CC[C@H](C)[C@@H]1NC(=O)[C@H](CC(C)C)NC(=O)[C@@H]2CSCN2C(=O)[C@@H]2CSCN2C(=O)CN2C(=O)c3ccccc3[C@@]2(O)CN(Cc2ccccc2)C1=O showed an Activity [1] of 9.83%, an Activity [2] of 35.7% and an Activity [3] of 7.3%. The Activity [4] was 0%, the Activity [5] was 3.51% and the Activity [6] was 33%. The Activity [7] was 37.5%, the viability at 13.2 µM [8] was 84.5% and the Activity [9] was 32.3%. It also gave an Activity [10] of 1.3% and an Activity [11] of 25.1%.

Reference: ChEMBL document CHEMBL5120939, “Novel Isoindolinone-Based Analogs of the Natural Cyclic Peptide Fenestin A: Synthesis and Antitumor Activity” (ACS Med Chem Lett, 2022)
